Like-named read-outs stand apart in the source and are kept apart here.

The test system of assay [1] is MDA-MB-231 human breast cancer cell line. In words: MTT assay of MDA-MB-231 cells. It counts as cell-based. The following applies: Homo sapiens, media containing 5% fetal bovine serum. On the procedure:
(§1) MDA-MB-231 and MCF7 cells were plated at a density of 8×10^3 cells/well and 10^4 cells/well in 96-well culture plates, respectively. The compounds were fed in serum free media containing 5% and 1% fetal bovine serum for MDA-MB-231 and MCF7 cells, respectively.
A general note: Tetrazolium dyes change colour on reduction, which living cells bring about.

The test system of assay [2] is MDA-MB-231 human breast cancer cells. In words: Wound-healing assay (cell migration). The following applies: Homo sapiens; for inhibition at 5 µM: MDA-MB-231, 24 h, wound-healing assay; for IC50: MDA-MB-231, wound-healing assay, dose response, read-out: IC50 antimigratory activity. It counts as cell-based. Here is the method: The highly metastatic human breast cancer MDA-MB-231 cells were cultured in RPMI 1640 medium containing 10 mM HEPES, 4 mM L-glutamine, 10% fetal bovine serum, penicillin (100 IU/mL), and streptomycin (50 μg/mL), and grown in a 5% CO2 atmosphere at 37° C. Cells were plated onto sterile 24-well and allowed to recover for a confluent cell monolayer formed in each well (>95% confluence). Wounds were then inflicted to each cell monolayer using a sterile 200 μL pipette tip. Media were removed, cells monolayers were washed twice with PBS, and then fresh media containing test compounds were added to each well. Test compounds were prepared in DMSO at 5 μM concentration and added to the plates, each in triplicate using DMSO as negative control. The incubation was carried out for 24 h under serum-starved conditions, after which media was removed and cells were fixed and stained using a staining composition sold under the trade name Diff Quick (Dade Behring Diagnostics, Aguada, Puerto Rico). The stain comprised a fixative reagent containing 1.8 mg/L triarylmethane dye in methyl alcohol; a first solution of 1 g/L xanthene dye, buffer, and sodium azide (0.01%) as preservative; and a second solution of 1.25 g/L Thiazine dye mixture (0.625 g/L azure A and 0.625 g/L methylene blue) and buffer. The number of cells migrated on the scratched wound were counted under the microscope in three or more randomly selected fields (magnification: 400×). Final results are expressed as mean±SEM per 400× field. The wound-healing assay is a simple method for the study of directional cell migration in vitro.
Compounds were tested for their ability to inhibit the migration of the highly metastatic MDA-MB-231 human breast cancer cells in the wound-healing assay using the procedure described above. Compounds 6, 10, 12, 13, 24, 26, 27, and 29 inhibited the migration of more than 50% of the human breast cancer cells MDA-MB-231 in the wound healing assay at 5 μM dose. […] The antimigratory activity of tocotrienols may be enhanced by a terminal aromatic functionality. The presence of electron withdrawing group, such as nitro in Compound 29, may eliminate the antiproliferative activity yet retain the antimigratory activity of the compound. While the electron donating groups, such as OH and OMe found in Compounds 23 and 26, respectively, retained both antiproliferative and antimigratory activities.
Utilizing similar procedures follow-up testing was conducted on a variety of compounds using a range of compound concentrations. The results of follow-up antimigratory testing are shown in FIG. 35B and Table III below with IC50 values calculated using statistical software.

In assay [3] the test system is MCF7 human breast cancer cell line. In words: MTT assay of MCF7 cells. It counts as cell-based. The note with it: Homo sapiens, media containing 1% fetal bovine serum. Here is the method: as §1
In assay [4] the test system is +SA mammary epithelial cells. In words: MTT assay of +SA cells (antiproliferative activity). It counts as cell-based, mouse. The note with it: for antiproliferative activity against +SA mammary tumor cells (in words): described from FIG. 32 / text. Here is the method: The antiproliferative activities of Compounds 3-44 against the highly metastatic malignant +SA mammary epithelial cells were evaluated by MTT assay. Materials for the assay were purchased from Sigma Chemical Company (St. Louis, Mo.) unless otherwise stated. The highly malignant +SA mouse mammary epithelial cell line was serially passaged at subconfluent cell density. The +SA mammary tumor cell line was derived from an adenocarcinoma that developed spontaneously in a BALB/c female mouse. +SA cells were maintained in serum-free defined medium consisting of Dulbecco's modified Eagle's medium (DMEM)/F12 containing 5 mg/mL bovine serum albumin (BSA), 10 […], 100 U/mL soybean trypsin inhibitor, 100 U/mL penicillin G, 0.1 mg/mL streptomycin, […], and 10 ng/mL epidermal growth factor. For subculturing, cells were rinsed twice with sterile Ca2+ and Mg2+-free phosphate buffered saline (PBS) and incubated in 0.05% trypsin containing 0.025% EDTA in PBS for 5 min at 37° C. The released cells were centrifuged, resuspended in fresh media and counted using hemocytometer. A stock solution of the compounds was prepared in DMSO. Once dissolved, this solution was added to a small volume of sterile 10% BSA in water and incubated overnight at 37° C. This solution conjugated to BSA was used to prepare various concentrations (0-40 μM) of tocotrienol analogs. DMSO was added to all treatment media such that the final DMSO concentration was the same in all treatment groups within a given experiment and was always less than 0.1%. For cytotoxic studies, cells were seeded at a density of 5×10^4 cells/well (+SA cells) or 1×10^5 cells/well (CL-S1 cells) (6 wells/group) in 24-well culture plates and allowed to grow in their respective control media. After 3 days incubation period (approximately 70% confluency), cells were divided equally into various treatment groups and exposed to their respective treatments for a 24 hours incubation period. Following the 24 hours treatment period, cell viability was measured using the MTT assay.
+SA Mammary epithelial cell viable number was determined by a 3-(4,5-dimethylthiazol-2yl)-2,5-diphenyl tetrazolium bromide (MTT) colorimetric assay. On the assay day, treatment medium was replaced with fresh control medium containing 0.42 mg/mL MTT, and the cells in 24-well plates were incubated at 37° C. for 4 hours. Afterward, the medium was removed, and the MTT crystals were dissolved in isopropyl alcohol (1 mL/well). The optical density of each sample was read at 570 nm on a microplate reader (SpectraCount, Packard BioScience Company), against a blank prepared from cell-free cultures. The number of cells/well was calculated against a standard curve prepared by plating various concentrations of cells, as determined by hemocytometer, at the start of each experiment.
Differences among the various treatment groups in +SA cell cytotoxic studies were determined by analysis of variance (ANOVA) followed by Dunnett's t-test. The difference of P<0.05 was considered to be statistically significant as compared with vehicle-treated controls unless separately described. Linear regression analysis of treatment effects on viable cell number in growth and cytotoxicity studies was used to determine the 50% growth inhibition concentration (IC50) for individual treatments.

The subject of assay [5] is MCF 10A non-tumorigenic mammary epithelial cells. In words: MTT assay of MCF10A cells. The assay is classed as cell-based, human. The note with it: for IC50: Homo sapiens; for Selectivity index: IC50 for MCF 10A divided by IC50 for +SA cell line. On the procedure:
MCF 10A (ATCC cat # CRL-10317) normal human non-tumorigenic mammary epithelial cells were maintained in serum-free defined medium consisting of Dulbecco's modified Eagle's medium (DMEM)/F12 containing 5% horse serum, 1% penicillin/streptomycin, 0.5 μg/mL hydrocortisone, 100 ng/mL cholera toxin, 10 μg/mL insulin, and 20 ng/mL epidermal growth factor (rhEGF). For subculturing, cells were rinsed twice with sterile Ca2+ and Mg2+-free phosphate buffered saline (PBS) and incubated in 0.25% trypsin containing 0.025% EDTA in PBS for 5 min at 37° C. The released cells were centrifuged, re-suspended in fresh media and counted using a hemocytometer. For testing, MCF 10A cells were plated at a density of 10×10^4 cells/well. A stock solution of the compounds was prepared in DMSO. DMSO was added to all treatment media such that the final DMSO concentration was the same in all treatment groups within a given experiment and was always less than 0.1%. The compounds were fed in serum free media. MCF10A mammary epithelial cell's viable number was determined by MTT colorimetric assay. […] IC50 values were calculated by non-linear regression using statistical software. The selectivity index indicated in the table represents the IC50 value for the MCF 10A cell line divided by the IC50 value for the +SA cell line.

Assay [6] has as its system 60 human tumor cell lines. In words: NCI in vitro screening against 60 human cell lines, single concentration. It counts as cell-based. The note with it: 10 μM dose; negative values indicate cytotoxicity. Here is the method:
Compounds selected from Compounds 3-44 were provided to the National Cancer Institute for in vitro screening against 60-human cell lines for their ability to inhibit the growth of tumor cells in a full panel representing nine different organs (blood, lung, colon, CNS, skin, ovary, kidney, prostate, and breast). The compounds were tested at a single concentration of 10 μM, and the percentages of growth inhibitions over the sixty tested cell lines were determined. Compounds showing the highest activity were chosen for secondary assays using five different compound concentrations.
The human tumor cell lines of the cancer screening panel were grown in RPMI 1640 medium containing 5% fetal bovine serum and 2 mM L-glutamine. For a typical screening experiment, cells are inoculated into 96 well microtiter plates in 100 μL at plating densities ranging from 5000 to 40,000 cells/well depending on the doubling time of individual cell lines. After cell inoculation, the microtiter plates are incubated at 37° C., 5% CO2, 95% air and 100% relative humidity for 24 hours prior to addition of experimental drugs. After 24 hours, two plates of each cell line are fixed in situ with Trichloroacetic acid (“TCA”), to represent a measurement of the cell population for each cell line at the time of drug addition. Experimental drugs are solubilized in dimethyl sulfoxide at 400-fold the desired final maximum test concentration and stored frozen prior to use. At the time of drug addition, an aliquot of frozen concentrate is thawed and diluted to twice the desired final maximum test concentration with complete medium containing 50 ng/mL gentamicin. An aliquot of 100 μL of this drug dilution is added to the appropriate microtiter wells already containing 100 μL of medium, resulting in the required final drug concentrations. Following drug addition, the plates are incubated for an additional 48 h at 37° C., 5% CO2, 95% air, and 100% relative humidity. For adherent cells, the assay is terminated by the addition of cold TCA. Cells are fixed in situ by the gentle addition of 50 μL of cold 50% (w/v) TCA (final concentration, 10% TCA) and incubated for 60 min at 4° C. The supernatant is discarded, and the plates are washed five times with tap water and air dried. Sulforhodamine B (SRB) solution (100 μL) at 0.4% (w/v) in 1% acetic acid is added to each well, and plates are incubated for 10 min at room temperature. After staining, unbound dye is removed by washing five times with 1% acetic acid and the plates are air dried. Bound stain is subsequently solubilized with 10 mM trizma base, and the absorbance is read on an automated plate reader at a wavelength of 515 nm. For suspension cells, the methodology is the same except that the assay is terminated by fixing settled cells at the bottom of the wells by gently adding 50 μL of 80% TCA (final concentration, 16% TCA). FIGS. 37-74 indicate the growth inhibition effects of selected Compounds against a variety of cell lines based on the above described testing configuration. FIGS. 37-74 present the Growth percent for a given compound against the cell lines and both values and a bar chart of the difference between the mean growth percent and the growth percent which is an indication of the selectivity of the compound for that particular cell line.

Setting [7] is: MCF-10A, MCF10A cells, Table II, non-linear regression, read-out: MCF10A (IC50).
[8] abbreviates: MCF 10A non-tumorigenic cells, Table I, read-out: IC50 MCF 10A.

What is called IC50 is the concentration at which inhibition is half-maximal. By inhibition is commonly meant the relative decrease from the control value, in per cent. Higher therefore signals a strong effect. `CC(C)=CCC/C(C)=C/CC/C(C)=C/CC[C@]1(C)CCc2c3c(c(C)c(C)c2O1)OCN(Cc1ccccc1)C3` [Compound 6, (R)-2-benzyl-5,6,8-trimethyl-8-((3E,7E)-4,8,12-trimethyltrideca-3,7,11-trienyl)-1,2,3,8,9,10-hexahydrochromeno[5,6-e][1,3]oxazine]: the IC50 is 27.3 µM in assay [1]; over 20 µM in assay [3]; 1.2 to 2.2 µM in assay [4] (Mus musculus, +SA cell, 24 hours treatment, read-out: IC50 antiproliferative activity against +SA mammary epithelial cells). This molecule also returned an inhibition at 5 µM in assay [2] of over 50%. In assay [4], the “antiproliferative activity against +SA mammary tumor cells (in words)” value is “inactive”.
As to `CC(C)=CCC/C(C)=C/CC/C(C)=C/CC[C@]1(C)CCc2c3c(cc(C)c2O1)OCN(CCCO)C3` [Compound 13, 3-((R)-6,8-dimethyl-8-((3E,7E)-4,8,12-trimethyltrideca-3,7,11-trienyl)-9,10-dihydrochromeno[5,6-e][1,3]oxazin-2(1H,3H,8H)-yl)propan-1-ol], the IC50 was over 10 µM in assay [1]; 6 µM in assay [2]; over 20 µM in assay [3]; 6.5 µM in assay [5] (setting [7]); 6.5 µM in assay [5] (setting [8]). In assay [2], this molecule gave an inhibition at 5 µM of over 50%. In addition, the Selectivity index in assay [5] was 3.61. In addition, the “mean percent growth across all 60 cell lines (mean 60)” value in assay [6] is reported as “negative”.
With `CC(C)=CCC/C(C)=C/CC/C(C)=C/CC[C@]1(C)CCc2c3c(c(C)c(C)c2O1)OCN(CCc1ccc(O)cc1)C3` [Compound 26, 4-(2-((R)-5,6,8-trimethyl-8-((3E,7E)-4,8,12-trimethyltrideca-3,7,11-trienyl)-9,10-dihydrochromeno[5,6-e][1,3]oxazin-2(1H,3H,8H)-yl)ethyl)phenol], the IC50 in assay [1] is over 5 µM; in assay [2], 4.5 µM; in assay [3], 10.6 µM; in assay [5] (setting [7]), 8.5 µM; in assay [5] (setting [8]), 8.5 µM. The same molecule returned an inhibition at 5 µM in assay [2] of over 50%. For the same molecule, the Selectivity index in assay [5] stood at 5.67. Moreover, in assay [4], the “antiproliferative activity against +SA mammary tumor cells (in words)” value is recorded as “very high activities”.
With `CC(C)=CCC/C(C)=C/CC/C(C)=C/CC[C@]1(C)CCc2c3c(cc(C)c2O1)OCN(CCCCO)C3` [Compound 36, 4-((R)-6,8-dimethyl-8-((3E,7E)-4,8,12-trimethyltrideca-3,7,11-trienyl)-9,10-dihydrochromeno[5,6-e][1,3]oxazin-2(1H,3H,8H)-yl)butan-1-ol], the IC50 in assay [1] is over 5 µM; in assay [2] it was 2.2 µM; in assay [3], 16.3 µM; in assay [5] (setting [7]), 4.2 µM; in assay [5] (setting [8]), 4.2 µM. The molecule further had a Selectivity index in assay [5] of 2.34. In addition, the “mean percent growth across all 60 cell lines (mean 60)” value in assay [6] is recorded as “negative”.

Source of the values: US9115145B2, “Tocotrienol derivatives and associated methods” (FIRST TECH INTERNATIONAL LIMITED, priority 2011, dated 2015).
